Laboratory results taken from PubChem BioAssay (NCI).
Where “and” joins values, the source holds several entries; their conditions need not be identical. Equal values may be shown once.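 The compound was tested at five concentrations on cells cultured in 96-well plates, with a 48-hour exposure period. GI50 is the concentration that inhibits growth by half. TGI is the concentration that stops growth completely.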

Columns and labels:
Assay in all cases: DTP human tumour cell line panel, 48 h
[1] = tested on: MALME-3M melanoma
[2] = tested on: SNB-75 CNS
[3] = tested on: MDA-MB-231 breast
[4] = tested on: KM12 colon
[5] = tested on: IGROV1 ovarian
[6] = tested on: HOP-92 NSCLC
[7] = tested on: HL-60(TB) leukemia
[8] = tested on: NCI-H23 lung
[9] = tested on: UACC-62 melanoma
[10] = tested on: K-562 leukemia
[11] = tested on: ACHN renal
[12] = tested on: CCRF-CEM leukemia
[13] = tested on: HCT-116 colon
[14] = tested on: MOLT-4 leukemia
[15] = tested on: 786-0 renal
[16] = tested on: CAKI-1 renal
[17] = tested on: SW-620 colon
[18] = tested on: RPMI-8226 leukemia
[19] = tested on: SNB-19 CNS
[20] = tested on: SK-OV-3 ovarian
[21] = tested on: HCT-15 colon
[22] = tested on: HS 578T breast
[23] = tested on: HCC-2998 colon
[24] = tested on: SF-295 CNS
[25] = tested on: RXF 393 renal
[26] = tested on: SK-MEL-28 melanoma
[27] = tested on: BT-549 breast
[28] = tested on: COLO 205 colon
[29] = tested on: HT29 colon
[30] = tested on: NCI-H522 lung
[31] = tested on: M14 melanoma
[32] = tested on: EKVX NSCLC
[33] = tested on: DU-145 prostate
[34] = tested on: U251 CNS
[35] = tested on: SK-MEL-5 melanoma
[36] = tested on: SK-MEL-2 melanoma
[37] = tested on: MCF7 breast
[38] = tested on: OVCAR-4 ovarian
[39] = tested on: SF-539 CNS
[40] = tested on: OVCAR-3 ovarian
[41] = tested on: TK-10 renal
[42] = tested on: SF-268 CNS
[43] = tested on: SR leukemia
[44] = tested on: NCI-H226 lung
[45] = tested on: HOP-62 NSCLC
[46] = tested on: SN12C renal
[47] = tested on: UO-31 renal
[48] = tested on: LOX IMVI melanoma
[49] = tested on: A498 renal
[50] = tested on: NCI-H460 lung
[51] = tested on: OVCAR-8 ovarian
[52] = tested on: OVCAR-5 ovarian
[53] = tested on: A549 NSCLC
[54] = tested on: T-47D breast
[55] = tested on: UACC-257 melanoma
[56] = tested on: PC-3 prostate
[57] = tested on: NCI/ADR-RES ovarian
[58] = tested on: MDA-MB-435
[59] = tested on: MDA-N

For Cc1ccc(C(=O)Nc2cccc(C(F)(F)F)c2)cc1Nc1nc(-c2cccnc2)nc2c1cnn2C, the GI50 [1] was 0.482 µM and 0.262 µM, the TGI [1] was 2.77 µM and 1.5 µM and the GI50 [2] was 2.83 µM and 2.17 µM. The TGI [2] was 11.1 µM and 6.05 µM, the GI50 [3] was 0.769 µM and 0.348 µM and the TGI [3] was 3.21 µM and 3.95 µM. The GI50 [4] was 2.62 µM and 0.686 µM, the TGI [4] was 17.2 µM and 8.28 µM and the GI50 [5] was 1.74 µM and 0.851 µM. For the same compound, the TGI [5] was 8.71 µM and 5 µM, the GI50 [6] was 1.31 µM and 0.534 µM and the TGI [6] was 5.13 µM and 5.01 µM. For the same compound, the GI50 [7] was 0.423 µM and 0.273 µM, the TGI [7] was 3.59 µM and 3.57 µM and the GI50 [8] was 1.81 µM and 1.3 µM. For the same compound, the TGI [8] was 12.8 µM and 9.54 µM, the GI50 [9] was 0.628 µM and 0.335 µM and the TGI [9] was 5.37 µM and 4.25 µM. The GI50 [10] was 0.0359 µM and 0.0309 µM, the TGI [10] was greater than 100 µM and the GI50 [11] was 2.13 µM and 1.08 µM. The TGI [11] was 11.1 µM and 7.4 µM, the GI50 [12] was 3.02 µM and 2.44 µM and the TGI [12] was greater than 100 µM. For the same compound, the GI50 [13] was 0.917 µM and 0.377 µM, the TGI [13] was 2.87 µM and 3.67 µM and the GI50 [14] was 1.78 µM and 0.886 µM. For the same compound, the TGI [14] was 11 µM and > 10 µM, the GI50 [15] was 2.67 µM and 1.64 µM and the TGI [15] was 8.01 µM and 5.12 µM. The GI50 [16] was 2.44 µM and 1.33 µM, the TGI [16] was 11.8 µM and 3.35 µM and the GI50 [17] was 1.74 µM and 1.51 µM. The TGI [17] was 13.4 µM and > 10 µM, the GI50 [18] was 1.63 µM and the TGI [18] was 6.04 µM. For the same compound, the GI50 [19] was 4.16 µM and 3.18 µM, the TGI [19] was 17.1 µM and > 10 µM and the GI50 [20] was 4.48 µM and 3.79 µM. For the same compound, the TGI [20] was 22.2 µM and > 10 µM, the GI50 [21] was 2.65 µM and 1.63 µM and the TGI [21] was 4.94 µM. The GI50 [22] was 1.94 µM and 1.41 µM, the TGI [22] was 7.14 µM and 4.91 µM and the GI50 [23] was 1.11 µM and 0.632 µM. The TGI [23] was 3.35 µM and 2.62 µM, the GI50 [24] was 2.12 µM and 1.84 µM and the TGI [24] was 4.99 µM and 4.47 µM. The GI50 [25] was 1.47 µM and 1.45 µM, the TGI [25] was 4.24 µM and 3.66 µM and the GI50 [26] was 0.866 µM and 0.389 µM. For the same compound, the TGI [26] was 7.66 µM and 3.4 µM, the GI50 [27] was 4.12 µM and 2.86 µM and the TGI [27] was 14.5 µM and 8.91 µM. The GI50 [28] was 1.22 µM and 0.575 µM, the TGI [28] was 5.79 µM and 3.65 µM and the GI50 [29] was 1.48 µM and 0.488 µM. For the same compound, the TGI [29] was 35.1 µM and 4.49 µM, the GI50 [30] was 4.68 µM and 1.37 µM and the TGI [30] was 27.3 µM and 5.09 µM. For the same compound, the GI50 [31] was 1.05 µM and 0.442 µM, the TGI [31] was 3.66 µM and 3.43 µM and the GI50 [32] was 3.22 µM and 2.59 µM. The TGI [32] was 21.3 µM and > 10 µM, the GI50 [33] was 5.5 µM and 3.09 µM and the TGI [33] was 26.7 µM and > 10 µM. The GI50 [34] was 3.66 µM and 2.9 µM, the TGI [34] was 22 µM and > 10 µM and the GI50 [35] was 1.74 µM and 1.24 µM. The TGI [35] was 4.06 µM and 2.96 µM, the GI50 [36] was 0.721 µM and 0.367 µM and the TGI [36] was 5.03 µM and 2.07 µM. For the same compound, the GI50 [37] was 2.42 µM and 1.98 µM, the TGI [37] was 7.65 µM and 6.24 µM and the GI50 [38] was 4.56 µM and 2.59 µM. The TGI [38] was 30.3 µM and > 10 µM, the GI50 [39] was 2.59 µM and 1.22 µM and the TGI [39] was 13.3 µM and 3.28 µM. The GI50 [40] was 3.86 µM and 2.53 µM, the TGI [40] was 17.4 µM and 7.27 µM and the GI50 [41] was 5.9 µM and 2.1 µM. For the same compound, the TGI [41] was 36.6 µM and 6.42 µM, the GI50 [42] was 4.01 µM and 2.91 µM and the TGI [42] was 21.9 µM and > 10 µM. For the same compound, the GI50 [43] was 0.822 µM, the TGI [43] was 6.58 µM and the GI50 [44] was 2.3 µM and 1.63 µM. The TGI [44] was 7.45 µM and 5.64 µM, the GI50 [45] was 2.62 µM and 1.04 µM and the TGI [45] was 15.2 µM and > 10 µM. For the same compound, the GI50 [46] was 2.45 µM and 1.7 µM, the TGI [46] was 13.8 µM and > 10 µM and the GI50 [47] was 1.08 µM and 0.477 µM. The TGI [47] was 8.99 µM and 5.11 µM, the GI50 [48] was 1.4 µM and 0.704 µM and the TGI [48] was 3.72 µM and 2.61 µM. For the same compound, the GI50 [49] was 1.6 µM, the TGI [49] was 5.01 µM and the GI50 [50] was 2.84 µM and 2.54 µM. The TGI [50] was 12.5 µM and 7.19 µM, the GI50 [51] was 3 µM and 2.34 µM and the TGI [51] was 39.7 µM and > 10 µM. For the same compound, the GI50 [52] was 1.36 µM and 0.845 µM, the TGI [52] was 15.1 µM and > 10 µM and the GI50 [53] was 3.2 µM and 2.11 µM. The TGI [53] was 16.1 µM and > 10 µM, the GI50 [54] was 3.44 µM and 1.86 µM and the TGI [54] was 16.3 µM and 8.72 µM. For the same compound, the GI50 [55] was 2.02 µM and 0.875 µM, the TGI [55] was 8.28 µM and 4.76 µM and the GI50 [56] was 3.05 µM and 2.65 µM. The TGI [56] was 11.1 µM and > 10 µM, the GI50 [57] was 2.19 µM and 1.54 µM and the TGI [57] was 6.96 µM and 5.68 µM. The GI50 [58] was 1.64 µM and 1.45 µM and the TGI [58] was 4.74 µM and 4.95 µM.

In the case of COc1ccc(N2C(=O)C3c4[nH]c5c(C)cccc5c4C4CCC(C(C)(C)C)CC4C3C2=O)cc1 (stereo unspecified), the TGI [1] is reported as greater than 10 µM, the TGI [2] is reported as greater than 10 µM and the TGI [3] is reported as greater than 10 µM. For the same compound, the TGI [4] was greater than 10 µM, the TGI [5] was greater than 10 µM and the TGI [7] was greater than 10 µM. For the same compound, the TGI [8] was greater than 10 µM, the TGI [9] was greater than 10 µM and the TGI [10] was greater than 10 µM. The TGI [11] was greater than 10 µM, the TGI [12] was greater than 10 µM and the TGI [13] was greater than 10 µM. It also gave a TGI [59] greater than 10 µM, a TGI [14] greater than 10 µM and a TGI [16] greater than 10 µM. The TGI [17] was greater than 10 µM, the TGI [18] was greater than 10 µM and the TGI [19] was greater than 10 µM. For the same compound, the TGI [20] was greater than 10 µM, the TGI [21] was greater than 10 µM and the TGI [22] was greater than 10 µM. For the same compound, the TGI [23] was 7.61 µM, the TGI [24] was greater than 10 µM and the TGI [25] was greater than 10 µM. The TGI [26] was greater than 10 µM, the TGI [28] was greater than 10 µM and the TGI [29] was 5.86 µM. For the same compound, the TGI [30] was greater than 10 µM, the TGI [31] was greater than 10 µM and the TGI [32] was greater than 10 µM. For the same compound, the TGI [33] was greater than 10 µM, the TGI [34] was greater than 10 µM and the TGI [35] was greater than 10 µM. The TGI [36] was greater than 10 µM, the TGI [37] was greater than 10 µM and the TGI [38] was greater than 10 µM. For the same compound, the TGI [39] was greater than 10 µM, the TGI [40] was greater than 10 µM and the TGI [41] was greater than 10 µM. It also gave a TGI [42] greater than 10 µM, a TGI [43] greater than 10 µM and a TGI [44] greater than 10 µM. For the same compound, the TGI [45] was greater than 10 µM, the TGI [46] was greater than 10 µM and the TGI [47] was greater than 10 µM. The TGI [48] was 4.17 µM, the TGI [49] was greater than 10 µM and the TGI [50] was 6.63 µM. The TGI [51] was greater than 10 µM, the TGI [52] was greater than 10 µM and the TGI [53] was greater than 10 µM. The TGI [54] was greater than 10 µM, the TGI [56] was greater than 10 µM and the TGI [57] was greater than 10 µM. For the same compound, the TGI [58] was greater than 10 µM.
